This note sets out measurements from patent US8937183B2, “Detection of hydrogen peroxide” (Promega Corporation, priority 2011, dated 2015).

Structures are written as SMILES.

The nature of the experiment: Signal differences in mammalian cell culture media (DMEM) versus physiological buffer (HBSS) with hydrogen peroxide. It counts as biochemical. The note with it: 30 minutes. How it is done: A 100 μl sample of 4 mg/ml DMSO solution of PBI 4458 was diluted to 500 μl with HBSS buffer (Invitrogen 14025-092), and 50 μl added to wells A1-A9 of a fresh microtiter plate (“DISP”). 100 μl 4 mg/ml DMSO solution of PBI 4472 was diluted to 500 μl with HBSS, and 50 μl added to wells E1-E9. 90 μl HBSS was added to wells A1-B9 of two new microtiter plates labeled “RT” and “37C”. 90 μl DMEM was added to wells C1-D9 of both plates.
A sample of 30% hydrogen peroxide (Sigma H1009-5 ml) was diluted to 1 mM with Nanopure water, and 7.5 μl 1 mM hydrogen peroxide diluted to 1.5 ml with HBSS, and 90 μl added to wells A4-B6 of plates RT and 37° C. 15 μl 1 mM hydrogen peroxide was diluted to […] with HBSS, and 90 μl added to wells A7-B9 of both plates. 90 μl of HBSS was added to wells A1-B3, and 90 μl of DMEM added to wells C1-D3 of both plates. 7.5 μl 1 mM hydrogen peroxide was diluted to 1.5 ml with DMEM, and 90 μl added to wells C4-D6 of both plates. 15 μl 1 mM hydrogen peroxide was diluted to 1.5 ml with DMEM and 90 μl added to wells C7-D9 of both plates.
10 μl samples of row A of plate “DISP” was transferred to rows A and C of plates RT and 37° C., and 10 μl of row B of plate “DISP” transferred to rows B and D of plates RT and 37° C. The 37° C. plate was incubated at 37° C., 5% CO2, with plate RT incubated at room temperature. Both plates were incubated for 30 minutes.
A conversion solution was made by mixing 7.5 ml of 1 M HEPES, pH 8.0, 7.4 ml Nanopure water and 100 μl 100 mM D cysteine. After mixing, 75 μl was added to all wells of a new luminometer plate.
After incubation, 25 μl from wells A1-D9 of the 37° C. plate was transferred to wells E1-H9 of the new luminometer plate, 25 μl of wells A1-D9 of the RT plate was transferred to wells A1-D9 of new luminometer plate, and the plate incubated at room temperature for 2-3 minutes. A 100 μl sample of LDR (Example 23) was added to wells A1-H9, incubated for 15 minutes at room temperature, and bioluminescence detected on a GloMax® luminometer. After reading, the duplicate wells were averaged, and the averaged values with peroxide addition were compared to those without peroxide (Table 11).

With `CC1(C)OB(/C=C/COc2ccc3nc(C#N)sc3c2)OC1(C)C` [PBI 4458, (E)-6-((3-(4,4,5,5-tetramethyl-1,3,2-dioxaborolan-2-yl)allyl)oxy)-benzo[d]thiazole-2-carbonitrile], the “Averaged Relative Light Unit Values” runs as follows: (DMEM, 37 C. plate, 0 uM Per) 986,772 Relative Light Unit; (DMEM, 37 C. plate, 5 uM Per) 5,686,033 Relative Light Unit; (DMEM, 37 C. plate, 10 uM Per) 12,130,782 Relative Light Unit; (DMEM, RT plate, 0 uM Per) 2,075,191 Relative Light Unit; (DMEM, RT plate, 5 uM Per) 8,556,256 Relative Light Unit; (DMEM, RT plate, 10 uM Per) 16,016,143 Relative Light Unit. The “Averaged Relative Light Unit Values” is, setting by setting: (HBSS, 37 C. plate, 0 uM Per) 434,728 Relative Light Unit; (HBSS, 37 C. plate, 5 uM Per) 2,791,805 Relative Light Unit; (HBSS, 37 C. plate, 10 uM Per) 4,912,905 Relative Light Unit; (HBSS, RT plate, 0 uM Per) 853,268 Relative Light Unit; (HBSS, RT plate, 5 uM Per) 6,111,214 Relative Light Unit; (HBSS, RT plate, 10 uM Per) 10,641,411 Relative Light Unit.
As for `CC1(C)OB(c2ccc(COc3ccc4nc(C#N)sc4c3)cc2)OC1(C)C` [PBI 4472, 6-((4-(4,4,5,5-tetramethyl-1,3,2-dioxaborolan-2-yl)benzyl)oxy)benzo-[d]thiazole-2-carbonitrile], the “Averaged Relative Light Unit Values” is on record as 400,077 Relative Light Unit (DMEM, 37 C. plate, 0 uM Per); 3,083,589 Relative Light Unit (DMEM, 37 C. plate, 5 uM Per); 5,340,569 Relative Light Unit (DMEM, 37 C. plate, 10 uM Per); 921,496 Relative Light Unit (DMEM, RT plate, 0 uM Per); 4,304,645 Relative Light Unit (DMEM, RT plate, 5 uM Per); 8,071,553 Relative Light Unit (DMEM, RT plate, 10 uM Per). Moreover, the “Averaged Relative Light Unit Values” by setting is: (HBSS, 37 C. plate, 0 uM Per) 44,007 Relative Light Unit; (HBSS, 37 C. plate, 5 uM Per) 424,851 Relative Light Unit; (HBSS, 37 C. plate, 10 uM Per) 715,803 Relative Light Unit; (HBSS, RT plate, 0 uM Per) 103,738 Relative Light Unit; (HBSS, RT plate, 5 uM Per) 1,106,195 Relative Light Unit; (HBSS, RT plate, 10 uM Per) 2,058,421 Relative Light Unit.
